Patent publication US6660722B2, “Therapeutical treatments” (Laboratoires Goemar S.A., priority 2001, dated 2003)

Columns and labels:
[1] = oral LD 50 in rats; assay type: in vivo; details: given orally in rats
Method: Its LD 50 is high and was determined as to be greater than 2000 mg/Kg given orally in rats; furthermore there are no special handling requirements.

[2] = solubility of soluble laminarin; assay type: physicochemical
[3] = test system: target cells of tumor cell line YAC-1; experiment: in vitro cytotoxicity assay of NK cells (mouse splenocytes pre-treated with glucan) on YAC-1 target cells, CYTOTOX 96 LDH release; assay type: cell-based, Balb/c mice; parameters: stimulated NK cells more cytotoxic than the control: concentration or dose not given beside the values; details: for NK cell killing more active than BEI: versus BEI-stimulated cell killing; for NK cell killing more active than lentinan: versus Lentinan-stimulated NK cell killing; for stimulated NK cells more cytotoxic than the control: versus unstimulated NK cells
Method: In that respect, Applicants first carried out an in vitro cytotoxicity assay on spleen cells isolated from spleen of Balb/c mice by standard methods.
These tests were conducted to evaluate the effects of soluble laminarin on the cytotoxicity of NK (Natural Killer) cells of mouse and to compare these effects with those of two known glucans, ie.
The spleens isolated from the above said Balb/c mice were placed into Petri dishes containing RPMI 1640 medium obtained from Life Technologies USA, supplemented with 5% by weight of FCS (fetal calf serum from Life Technologies USA). The spleens were cut into small pieces and a suspension was made by pressing the minced spleens against the bottom of Petri dishes containing PBS (Phosphate Buffered Saline obtained from Biowhitaker Inc,8830 Biggsford Road, Walkersville, Md. 21793 USA). The thus obtained pieces of tissue were gently teased over stainless steel screens using a plunger of a 5-ml syringe. Large debris and cell clumps were removed by layering the cell suspension over 3 ml of heat-inactivated FCS for 10 minutes on ice. After elimination of erythrocytes by incubation during 10 seconds in distilled water and five washes in cold PBS, the thus obtained cells which are called splenocytes, were resuspended in PBS and counted.
The evaluation of the cytotoxicity of these cell suspensions was conducted by suing a non radioactive cytotoxicity assay marketed under the trademark CYTOTOX 96 by Promega, Madison, Wis., USA.
For these experiments, the splenocytes which are also called “effector cells” were pre-treated during 30 minutes by mixing the suspensions containing them respectively with soluble laminarin, with lentinan and with BEI glucan; the mixtures were subsequently incubated with suspensions of target cells of tumor cell line YAC-1 which is known to be relatively […] to normal inactivated N K cells.
The specificity of the assay was established by using the following three different ratios effector cells/target cells denoted ET: 10:1, 50:1 and 100:1.
For each ratio, 3 counts were carried out and experiments were repeated 3 times on 3 different days.
Controls consisted of effector cells incubated only with PBS.
More particularly, the above cell suspensions of splenocytes (effector cells) were diluted to 10^6 cells/ml and placed in individual wells of V-shaped 96-well microplates at a concentration of 0.1 ml/well.
Laminarin, lentinan and BEI glucan which occur in the form of powders, were added after dissolution in PBS at an identical concentration of 2 μg/ml in PBS and the plates were incubated for 30 minutes at 37° C. in an humidified CO2 incubator.
After incubation, the plates i.e. the incubated cells contained in the wells were washed three times with RPMI 1640 medium, and 50 μl of the suspension of target cell line YAC-1 were added in each well, respecting the above “effector cells/target cells” ratios or E T: 10:1, 50:1 and 100:1.
For each of these ratios, 3 individual wells were used, the number of target cells being respectively 10^4,2×10^3 and 1×10^3.
In addition, target cells for spontaneous release control, target cells for maximum release control and effector cells release control were introduced into appropriate wells, i.e. 3 individual wells for each concentration used.
Basically, it is necessary to obtain the values of spontaneous release from both target and effector cells, and these values serve as a background. The maximum release control serves as 100%.
After spinning the plates at 250 g for 5 minutes in a centrifuge, the plates were incubated for 4 hours at 35° C. in a humidified CO2 incubator.
For evaluating the cytotoxicity activity of the effector or N K cells, procedure was as follows, using the instructions of the manufacturer PROMEGA.
A quantity of 10 μl of lysis solution, included in the Kit, was added 45 min before the end of incubation into appropriate control wells, i.e. into wells with maximum release control. […]

[4] = test system: mouse breast cancer cell line 64 Ptas; experiment: tumor growth in vivo in mice inoculated with breast cancer cells; details: daily intraperitoneal injection during 14 days; doses 100 and 250 μg per injection (dose of the value not stated)
Method: The above said data have been confirmed by additional experiments where the effects of soluble laminarin on tumor growth in vivo were evaluated; yeast derived glucan BEI was used for comparison.
In these additional experiments, mice were inoculated with mouse breast cancer cell line 64 Ptas. Experimental treatment was achieved by daily intraperitoneal injection during 14 days of two different doses of soluble laminarin and BEI diluted in PBS; the said two different doses were respectively 100 and 250 μg of laminarin per injection.
At the end of the 14 days treatment, the mice were killed, tumors were removed and weighted.

## laminarin [soluble laminarin]
[1]
  LD 50: greater than 2000 mg/Kg
[2]; ethanol, 2-propanol and acetone
  solubility in ethanol, 2-propanol and acetone: substantially insoluble
[2]; water
  water-soluble: up to 60 g/l
[3]; ET 10:1
  NK cell killing more active than BEI: 132%
  NK cell killing more active than lentinan: 133%
  stimulated NK cells more cytotoxic than the control: 245%
[3]; ET 50:1
  NK cell killing more active than BEI: 122%
  NK cell killing more active than lentinan: 123%
  stimulated NK cells more cytotoxic than the control: 196%
[3]; ET 100:1
  NK cell killing more active than BEI: 129%
  NK cell killing more active than lentinan: 130%
  stimulated NK cells more cytotoxic than the control: 180%
[4]
  weight of the tumors with respect to the weight of the tumors treated with the control: 28%
